Test results published in patent US8420100B2, “Tumor suppressor activating polypeptides and uses thereof” (Department of Biotechnology, priority 2006, dated 2013).

Columns and labels:
Format in all cases: cell-based
[1] = test system: p53-driven p21 promoter in K562 (p53-/-) cells; test: p21 luciferase reporter assay in K562 (p53-/-) cells; details: 10 μM peptide; for activation of p53 (p21 promoter driven luciferase activity): K562 (p53-/-) co-transfected with p21 luciferase reporter and p53 constructs, 12 h
Procedure: TAT-SMAR1 WT peptide (P44) modulates p53 function: To examine whether P44 peptide could alone activate p53^−, luciferase reporter assays were performed following treatment of cells with the chimeric TAT-SMAR1 derived peptides. HEK 293 (p53^+/+) cells were transfected with p21 expression plasmid having luciferase reporter gene and K562 (p53^−/−) cells were co-transfected with p21 luciferase reporter and p53 constructs. […] (FIG. 2A, bar 3) and about 1.5 fold activation in p53^−/− cell line (FIG. 2B, bar 4).
FIG. 2. P44 peptide activates the p53-driven p21 gene expression in reporter assays. p21 promoter activity was checked in both HEK 293 (p53^+/+) (A) and K562 (P53^−/−) cells (B). Cells were transfected with either pG13 […] reporter plasmid, a p53-driven p21 promoter, in HEK 293 cells or cotransfected with wild-type (wt) p53 in K562 cells. After 24 h post-transfection, cells were treated for 12 h with 10 μM concentration of various TAT-SMAR1 chimeric peptides. Y axis represents the fold luciferase activity (mean±SD of three independent experiments).
Luciferase reporter assay: HEK 293 (p53^+/+) and K562 (p53^−/−) cells were grown in DMEM supplemented with 10% FBS in the presence of 5% CO2 at 37° C., a total number of 1×10^6, cells were plated on a 6-well plate. After 24 h, cells were transiently transfected using lipofectamine-2000 with either 1 μg of p21 expression plasmid having luciferase reporter gene or 5 μg p21 luciferase along with wt p53 construct in K562 cell line. Two micrograms of pRL-CMV (Renilla luciferase reporter plasmid) was included in all transfections to normalize the transfection efficiency. Thirty six hours post-transfection, cells were treated with 10 μM of either P44 peptide or its various mutants. The cells were harvested 12 h post-treatment, washed with PBS and lysed in 1× Passive lysis buffer (Promega). After three freeze-thaw cycles, cells were spun at 10,000 rpm at 4° C. for 20 min. The supernatants were collected and protein concentrations were estimated spectrophotometrically using Bradford reagent as (BioRad, CA). According to the manufacturer's instructions, luciferase activity was assessed using the dual luciferase assay reporter kit (Promega). The luciferase activity was measured by using Fluoroskan Ascent Luminometer (Labsystems). For all the luciferase assays, the data shown are the mean+SD of three independent experiments.

[2] = target: T1, p53 (serine-15 phosphorylation) (Homo sapiens, UniProt P04637); test: Western blotting for total p53 and phospho serine-15 p53 in peptide-treated HEK 293 cells; details: for p53 activation (pSer-15 p53 level): HEK 293, 10 μM peptide, 12 h (FIG. 4A)
T1 construct: HEK 293 (p53^+/+) cells; endogenous in cells; host or cells: HEK 293
Procedure: (§1) P44 peptide controls the activity of cell cycle regulatory proteins: The minimal dose of P44 peptide that was functionally effective in activating p53 was evaluated by incubating HEK 293 cells with varying concentrations of P44 peptide (1-100 μM) (FIG. 3A) and after 12 h of incubation, protein lysates were prepared and processed for immunoblotting with total p53 (DO-1) and p53 ser-15 phospho-specific antibodies. […] However, there was a 4.5-fold increase in the expression of phosphorylated p53 (pSerine-15 p53) in P44 peptide-treated cells (FIG. 3A, lanes 2-6). To exclude the possibility that p53 activation is an effect of the protein transduction domain of HIV-1 TAT protein, similar set of experiment was performed using TAT-PTD peptide alone (consisting of only the 11-mer TAT-sequence). […] This observation reconfirmed that the RS domain (288-350 aa) of SMAR1 could exclusively activate p53 by mediating its phosphorylation specifically at serine-15 residue. Serine-15 phosphorylation of p53 is associated with its increased transcription efficiency, decreased affinity for MDM2, and its increased nuclear retention. One of the target genes activated by p53 is p21, an inhibitor of a subset of the cyclin-dependent kinases including cdc-2 (Sherr, C. J., and Roberts, J. M. (1999) Genes Dev. 13, 1501-1512). To evaluate the significance of peptide-mediated p53 activation, P44 peptide-treated lysates were further checked for tyrosine 15 phosphorylation of cdc2. […] HEK 293 cells were treated with SM peptide and checked for p53 as well as pcdc-2 levels.
(§2) Serine 347 residue of SMAR1: critical for mediating the effects of full-length SMAR1: Once it was established that the serine motif (SSSSYS) plays a pivotal role in SMAR1-mediated p53 activation, it got necessary to identify the serine residue within this motif that might be necessary in mediating these effects. To identify the critical serine residue within P44 peptide, various point-mutant peptides were custom synthesized, that varied with respect to the position of serine residue that was mutated (Table 1). To evaluate the functionality of mutant chimeric TAT-SMAR1 peptides [PS347A, PS348A, PS349A, PS350A and RS mutant (SM)] in comparison to the TAT-SMAR1 WT peptide (P44), HEK 293 cells were treated with 10 μM concentration of either of the peptides and protein lysates were prepared after 12 h incubation period. The lysates were then processed for immunoblotting with pSer-15 p53 and pcdc-2 antibodies. […] However, this was not the case with other mutated peptides. When the alanine was replaced back to serine at the 347 residue (FIG. 4A, lanes 3-5), the functionality of the peptide was restored as observed with increase in pcdc-2 levels. […] However, in case of SM (where serine residues from 347-350 were replaced by alanines) treated cells (FIG. 4A, lane 7), there was no difference in the pSer-15 p53 as well as pcdc-2 levels compared to either untreated or PS347A treated cells (FIG. 4A, lanes 1 and 2, respectively).
(§3) FIG. 3. P44 peptide activates p53-mediated cell cycle pathway. A, HEK 293 cells were seeded at a density of 5×10^5 and after 24 h, was incubated with increasing concentrations of the TAT-SMAR1 WT (P44) peptide. Protein lysates were prepared and then immunoblotted with antibodies to total p53, phospho serine-15. B, The same set of experiment was repeated with TAT PTD peptide representing the PTD carrier sequence alone and immunoblotted with phospho serine-15, in comparison of P44 treated cells. C, The status of phospho cdc-2 was further analyzed in P44 peptide treated cells. Total […] was used as an internal control. D, The same set of experiments were again repeated using TAT-SMAR1 RS mutant (SM) peptide and whole cell lysates were probed for phospho p53 serine-15 and pcdc-2 antibodies. […] was used as a loading control.
(§4) FIG. 4. Serine 347 residue of SMAR1 mediates p53 activation and stabilization. […]

[3] = test system: cdc2 (tyrosine 15 phosphorylation, pcdc-2); test: Western blotting for pcdc-2 in peptide-treated HEK 293 cells; details: for pcdc-2 level: HEK 293, 10 μM peptide, 12 h (FIG. 4A); for pcdc-2 level compared to untreated cells: HEK 293, peptide-treated lysates (FIG. 3C, 3D)
Procedure: as §1, §2, §3, §4

T1 sequence (P04637 whole entry): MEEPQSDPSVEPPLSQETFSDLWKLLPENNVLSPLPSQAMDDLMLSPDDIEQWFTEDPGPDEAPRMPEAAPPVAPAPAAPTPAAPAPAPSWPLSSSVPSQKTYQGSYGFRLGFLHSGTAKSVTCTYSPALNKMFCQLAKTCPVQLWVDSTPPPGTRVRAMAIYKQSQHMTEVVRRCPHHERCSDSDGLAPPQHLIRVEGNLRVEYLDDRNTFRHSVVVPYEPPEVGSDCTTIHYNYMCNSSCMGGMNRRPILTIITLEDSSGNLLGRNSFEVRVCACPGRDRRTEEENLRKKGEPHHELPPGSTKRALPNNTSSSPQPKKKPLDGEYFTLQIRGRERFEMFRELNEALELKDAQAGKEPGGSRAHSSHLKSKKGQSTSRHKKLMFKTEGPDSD

Sequence | activation of p53 (p21 promoter driven luciferase activity) [1] | p53 activation (pSer-15 p53 level) [2] | pcdc-2 level [3] | expression level of p53 phospho-serine 15 compared to untreated cells ([2]; HEK 293, SM peptide-treated lysates (FIG. 3D)) | pcdc-2 level compared to untreated cells [3] | p21 promoter luciferase activity with peptide alone ([1]; K562 (p53-/-) cells without p53 construct) | increase in expression of phosphorylated p53 (pSerine-15 p53) ([2]; HEK 293, P44 1-100 μM, 12 h) | total p53 expression (DO-1) ([2]; HEK 293, P44 1-100 μM, 12 h)
YGRKKRRQRRRTAWRRKQRGQSLAVKSFSRRTPSASSYSASETM [PS348A, point mutant of P44, serine 348 replaced by alanine] | No significant alteration | No significant decrease | increase |  |  |  |  | 
YGRKKRRQRRRTAWRRKQRGQSLAVKSFSRRTPSSASYSASETM [PS349A, point mutant of P44, serine 349 replaced by alanine] | No significant alteration | No significant decrease | increase |  |  |  |  | 
YGRKKRRQRRRTAWRRKQRGQSLAVKSFSRRTPSSSAYSASETM [PS350A, point mutant of P44, serine 350 replaced by alanine] | No significant alteration | No significant decrease | increase |  |  |  |  | 
YGRKKRRQRRRTAWRRKQRGQSLAVKSFSRRTPASSSYSASETM [PS347A, point mutant of P44, serine 347 replaced by alanine] | complete loss | no significant activation | decreased |  |  |  |  | 
YGRKKRRQRRRTAWRRKQRGQSLAVKSFSRRTPAAAAYSASETM [SM, P44 mutant where serine residues from 347-350 were replaced by alanines] | complete loss | no difference | no difference | no increase | no increase |  |  | 
YGRKKRRQRRRTAWRRKQRGQSLAVKSFSRRTPSSSSYSASETM [P44, 33 mer SMAR1 peptide (residues 324-357) conjugated with 11-mer TAT-PTD] | about 1.5 fold |  | increase |  | upregulation | no activity | 4.5 fold | slight increase
